{
  "source": "paper PMC9516332",
  "about": "(Frontiers in Oncology, 2022)",
  "assay_in_all_cases": "Kinase panel profiling at 1 µmol/L (MSA or IMAP), percentage inhibition",
  "type_in_all_cases": "biochemical",
  "key": {"[1]": {"molecular_target": "panel of 255 wild-type kinases (Homo sapiens, UniProt Q86Z02)", "sequence (Q86Z02 whole entry)": "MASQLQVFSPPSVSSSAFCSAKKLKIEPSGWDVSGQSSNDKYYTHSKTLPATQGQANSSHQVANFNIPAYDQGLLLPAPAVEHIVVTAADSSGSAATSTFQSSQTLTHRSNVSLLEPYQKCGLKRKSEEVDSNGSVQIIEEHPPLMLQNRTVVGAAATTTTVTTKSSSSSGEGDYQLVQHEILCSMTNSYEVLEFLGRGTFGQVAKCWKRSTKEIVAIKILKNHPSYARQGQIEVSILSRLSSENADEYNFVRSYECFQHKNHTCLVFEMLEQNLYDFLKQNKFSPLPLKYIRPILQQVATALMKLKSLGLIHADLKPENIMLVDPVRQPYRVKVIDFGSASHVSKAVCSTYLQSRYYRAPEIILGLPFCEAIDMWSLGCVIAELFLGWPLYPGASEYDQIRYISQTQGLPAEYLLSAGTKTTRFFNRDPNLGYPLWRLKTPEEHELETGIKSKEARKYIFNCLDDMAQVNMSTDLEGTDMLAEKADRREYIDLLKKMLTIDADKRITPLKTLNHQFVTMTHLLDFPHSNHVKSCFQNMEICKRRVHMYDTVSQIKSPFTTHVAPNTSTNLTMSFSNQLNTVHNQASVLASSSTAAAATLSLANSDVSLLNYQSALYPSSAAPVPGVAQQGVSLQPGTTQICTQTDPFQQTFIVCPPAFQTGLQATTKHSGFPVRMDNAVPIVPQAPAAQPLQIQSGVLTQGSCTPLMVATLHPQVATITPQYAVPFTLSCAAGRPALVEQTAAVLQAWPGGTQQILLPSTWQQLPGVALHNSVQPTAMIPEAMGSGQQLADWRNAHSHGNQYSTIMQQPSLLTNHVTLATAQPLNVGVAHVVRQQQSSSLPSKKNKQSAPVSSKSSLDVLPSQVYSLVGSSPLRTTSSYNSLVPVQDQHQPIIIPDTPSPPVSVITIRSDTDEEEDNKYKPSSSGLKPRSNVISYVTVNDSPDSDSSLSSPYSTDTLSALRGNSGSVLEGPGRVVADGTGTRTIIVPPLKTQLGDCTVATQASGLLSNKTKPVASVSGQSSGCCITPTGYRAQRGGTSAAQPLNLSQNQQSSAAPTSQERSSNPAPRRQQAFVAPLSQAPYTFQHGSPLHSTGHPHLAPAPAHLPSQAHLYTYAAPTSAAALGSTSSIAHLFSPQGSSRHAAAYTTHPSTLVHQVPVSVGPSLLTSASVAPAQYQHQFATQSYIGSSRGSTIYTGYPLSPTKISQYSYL", "settings": "kinase HIPK1; 1 µmol/L single concentration; read-out: %-inhibition at 1 µmol/L, HIPK1"}, "[2]": {"molecular_target": "T1, panel of 255 wild-type kinases (Homo sapiens, UniProt Q9UF33)", "T1 sequence (Q9UF33 23-1036)": "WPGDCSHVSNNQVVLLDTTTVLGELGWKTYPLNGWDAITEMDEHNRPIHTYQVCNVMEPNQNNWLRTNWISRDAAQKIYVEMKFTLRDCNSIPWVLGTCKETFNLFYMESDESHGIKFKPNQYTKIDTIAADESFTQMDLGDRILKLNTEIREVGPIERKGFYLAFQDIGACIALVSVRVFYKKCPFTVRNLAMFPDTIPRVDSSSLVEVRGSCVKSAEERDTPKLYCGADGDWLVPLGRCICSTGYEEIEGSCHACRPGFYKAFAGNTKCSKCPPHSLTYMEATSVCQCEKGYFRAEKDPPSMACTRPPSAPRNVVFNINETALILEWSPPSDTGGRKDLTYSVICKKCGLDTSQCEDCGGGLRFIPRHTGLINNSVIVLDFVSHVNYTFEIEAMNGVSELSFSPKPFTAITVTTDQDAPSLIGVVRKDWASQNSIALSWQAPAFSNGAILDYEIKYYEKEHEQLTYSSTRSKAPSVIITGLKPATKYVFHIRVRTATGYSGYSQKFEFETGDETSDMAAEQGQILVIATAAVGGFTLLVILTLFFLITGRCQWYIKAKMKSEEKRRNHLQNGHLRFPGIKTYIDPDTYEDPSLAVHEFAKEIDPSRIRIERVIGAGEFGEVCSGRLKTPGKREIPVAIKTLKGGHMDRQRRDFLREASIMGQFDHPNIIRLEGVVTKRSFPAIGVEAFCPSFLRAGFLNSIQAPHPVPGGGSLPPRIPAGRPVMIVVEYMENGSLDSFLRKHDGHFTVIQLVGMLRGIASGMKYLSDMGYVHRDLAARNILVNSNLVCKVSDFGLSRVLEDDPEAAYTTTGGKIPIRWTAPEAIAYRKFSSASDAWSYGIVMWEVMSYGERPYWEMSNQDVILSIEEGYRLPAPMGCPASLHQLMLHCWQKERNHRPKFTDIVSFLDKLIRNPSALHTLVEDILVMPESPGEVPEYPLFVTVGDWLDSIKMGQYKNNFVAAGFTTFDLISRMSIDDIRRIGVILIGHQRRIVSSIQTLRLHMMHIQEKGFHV", "settings": "kinase EPHA6; 1 µmol/L single concentration; read-out: %-inhibition at 1 µmol/L, EPHA6"}, "[3]": {"molecular_target": "panel of 255 wild-type kinases (Homo sapiens, UniProt Q13557)", "sequence (Q13557 whole entry)": "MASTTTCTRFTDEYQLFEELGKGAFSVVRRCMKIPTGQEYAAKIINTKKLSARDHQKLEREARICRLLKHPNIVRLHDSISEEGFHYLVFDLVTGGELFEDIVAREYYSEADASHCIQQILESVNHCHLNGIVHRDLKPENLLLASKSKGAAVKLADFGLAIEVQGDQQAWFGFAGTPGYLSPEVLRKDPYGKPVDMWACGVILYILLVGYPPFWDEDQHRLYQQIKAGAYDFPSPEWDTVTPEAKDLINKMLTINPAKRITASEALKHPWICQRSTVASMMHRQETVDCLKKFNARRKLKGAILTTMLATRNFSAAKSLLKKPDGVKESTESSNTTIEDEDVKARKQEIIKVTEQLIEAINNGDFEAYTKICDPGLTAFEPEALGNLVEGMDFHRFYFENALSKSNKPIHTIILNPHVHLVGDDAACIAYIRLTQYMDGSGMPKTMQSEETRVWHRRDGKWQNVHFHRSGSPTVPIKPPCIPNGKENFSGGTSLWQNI", "settings": "CaMK2δ kinase assay; 1 µmol/L single concentration; read-out: %-inhibition CaMK2δ"}, "[4]": {"molecular_target": "T2, panel of 255 wild-type kinases (Homo sapiens, UniProt Q9H093)", "T2 sequence (Q9H093 1-628)": "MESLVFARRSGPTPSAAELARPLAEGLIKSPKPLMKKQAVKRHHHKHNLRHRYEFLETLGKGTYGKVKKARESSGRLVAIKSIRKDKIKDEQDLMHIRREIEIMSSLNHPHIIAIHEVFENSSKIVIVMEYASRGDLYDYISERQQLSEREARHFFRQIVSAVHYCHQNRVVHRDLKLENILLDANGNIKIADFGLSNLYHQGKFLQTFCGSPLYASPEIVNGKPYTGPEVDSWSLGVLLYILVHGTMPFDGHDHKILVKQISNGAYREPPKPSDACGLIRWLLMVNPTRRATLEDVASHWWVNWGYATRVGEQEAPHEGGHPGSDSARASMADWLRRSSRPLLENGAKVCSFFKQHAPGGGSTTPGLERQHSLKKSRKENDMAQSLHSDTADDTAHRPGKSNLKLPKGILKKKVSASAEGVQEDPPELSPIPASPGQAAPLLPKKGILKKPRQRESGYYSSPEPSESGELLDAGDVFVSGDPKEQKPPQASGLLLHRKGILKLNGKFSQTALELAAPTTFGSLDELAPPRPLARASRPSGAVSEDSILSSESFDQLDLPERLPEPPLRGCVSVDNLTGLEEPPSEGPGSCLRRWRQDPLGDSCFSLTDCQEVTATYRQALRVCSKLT", "settings": "NuaK2; 1 µmol/L single concentration; read-out: %-inhibition, NuaK2"}, "[5]": {"molecular_target": "T3, panel of 255 wild-type kinases (Homo sapiens, UniProt Q9NRA0)", "T3 sequence (Q9NRA0 1-654)": "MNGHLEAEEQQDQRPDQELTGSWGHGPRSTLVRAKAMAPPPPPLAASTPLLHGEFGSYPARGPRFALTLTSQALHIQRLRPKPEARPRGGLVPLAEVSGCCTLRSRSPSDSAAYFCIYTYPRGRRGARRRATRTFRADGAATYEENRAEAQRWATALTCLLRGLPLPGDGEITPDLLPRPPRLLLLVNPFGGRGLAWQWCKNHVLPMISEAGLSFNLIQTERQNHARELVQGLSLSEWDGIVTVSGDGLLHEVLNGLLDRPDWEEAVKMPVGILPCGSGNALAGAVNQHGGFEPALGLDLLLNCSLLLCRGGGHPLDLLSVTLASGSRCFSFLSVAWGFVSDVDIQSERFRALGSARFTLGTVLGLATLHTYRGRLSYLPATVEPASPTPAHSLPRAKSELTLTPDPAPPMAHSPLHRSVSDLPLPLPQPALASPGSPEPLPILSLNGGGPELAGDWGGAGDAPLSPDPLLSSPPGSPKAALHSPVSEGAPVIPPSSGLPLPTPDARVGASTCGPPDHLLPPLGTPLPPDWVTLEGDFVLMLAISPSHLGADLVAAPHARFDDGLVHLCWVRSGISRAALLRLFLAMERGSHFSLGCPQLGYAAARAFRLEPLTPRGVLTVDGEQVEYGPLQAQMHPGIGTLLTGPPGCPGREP", "settings": "kinase SPHK2; 1 µmol/L single concentration; read-out: %-inhibition at 1 µmol/L, SPHK2"}, "[6]": {"molecular_target": "panel of 255 wild-type kinases (Homo sapiens, UniProt Q5VT25)", "sequence (Q5VT25 whole entry)": "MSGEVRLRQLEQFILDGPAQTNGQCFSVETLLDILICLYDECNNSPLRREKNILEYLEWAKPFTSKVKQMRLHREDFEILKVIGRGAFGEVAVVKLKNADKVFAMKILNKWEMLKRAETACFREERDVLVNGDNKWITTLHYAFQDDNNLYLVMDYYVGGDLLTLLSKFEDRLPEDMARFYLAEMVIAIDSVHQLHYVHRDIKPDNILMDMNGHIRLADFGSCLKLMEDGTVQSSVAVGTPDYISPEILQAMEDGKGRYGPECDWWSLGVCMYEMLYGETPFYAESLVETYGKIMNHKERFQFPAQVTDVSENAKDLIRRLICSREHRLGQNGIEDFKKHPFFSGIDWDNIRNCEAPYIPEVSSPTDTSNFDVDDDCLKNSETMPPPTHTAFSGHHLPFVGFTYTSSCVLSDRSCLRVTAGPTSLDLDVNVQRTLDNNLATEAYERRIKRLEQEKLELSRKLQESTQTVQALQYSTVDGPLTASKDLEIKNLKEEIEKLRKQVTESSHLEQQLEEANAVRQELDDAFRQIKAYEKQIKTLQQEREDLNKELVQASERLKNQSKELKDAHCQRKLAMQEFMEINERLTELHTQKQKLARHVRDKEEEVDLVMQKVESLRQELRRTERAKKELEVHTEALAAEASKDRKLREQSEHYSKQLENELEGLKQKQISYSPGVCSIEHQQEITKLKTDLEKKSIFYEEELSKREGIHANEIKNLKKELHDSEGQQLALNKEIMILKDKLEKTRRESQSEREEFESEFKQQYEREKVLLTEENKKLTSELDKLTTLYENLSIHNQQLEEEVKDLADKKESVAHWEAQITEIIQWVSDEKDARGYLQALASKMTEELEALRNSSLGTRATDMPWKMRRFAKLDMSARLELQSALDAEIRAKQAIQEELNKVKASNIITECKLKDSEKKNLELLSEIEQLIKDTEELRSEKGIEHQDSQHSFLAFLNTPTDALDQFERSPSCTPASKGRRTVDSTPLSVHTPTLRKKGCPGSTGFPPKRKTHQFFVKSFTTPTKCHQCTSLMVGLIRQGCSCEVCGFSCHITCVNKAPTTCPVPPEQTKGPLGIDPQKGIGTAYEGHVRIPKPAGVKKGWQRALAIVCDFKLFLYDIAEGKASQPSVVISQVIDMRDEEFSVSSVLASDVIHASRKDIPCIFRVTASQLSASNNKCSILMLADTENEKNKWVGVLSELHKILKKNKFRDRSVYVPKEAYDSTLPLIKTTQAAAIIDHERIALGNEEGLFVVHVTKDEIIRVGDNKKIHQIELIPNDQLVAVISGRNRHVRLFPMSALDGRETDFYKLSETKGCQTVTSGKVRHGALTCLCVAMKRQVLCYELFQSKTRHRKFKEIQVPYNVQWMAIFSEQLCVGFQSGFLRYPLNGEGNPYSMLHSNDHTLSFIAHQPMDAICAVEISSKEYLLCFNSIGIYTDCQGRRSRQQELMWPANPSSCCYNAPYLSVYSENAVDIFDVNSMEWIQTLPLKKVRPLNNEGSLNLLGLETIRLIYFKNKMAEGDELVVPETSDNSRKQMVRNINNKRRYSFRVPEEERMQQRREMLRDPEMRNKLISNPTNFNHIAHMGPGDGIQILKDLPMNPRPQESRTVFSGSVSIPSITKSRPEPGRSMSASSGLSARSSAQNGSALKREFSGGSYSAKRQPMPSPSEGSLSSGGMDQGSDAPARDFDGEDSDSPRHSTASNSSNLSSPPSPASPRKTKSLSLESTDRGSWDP", "settings": "MRCKα; 1 µmol/L single concentration; read-out: %-inhibition, MRCKα"}},
  "data": [
    {"smiles": "C=CC(=O)N1CCC([C@@H]2CCNc3c(C(N)=O)c(-c4ccc(Oc5ccccc5)cc4)nn32)CC1", "note": "[zanubrutinib]", "values": [
      {"measurement": "inhibition at 1 µM", "setting": "[1]", "value": -3.58, "unit": "%"},
      {"measurement": "inhibition at 1 µM", "setting": "[2]", "value": 14, "unit": "%"},
      {"measurement": "inhibition at 1 µM", "setting": "[3]", "value": 3, "unit": "%"},
      {"measurement": "inhibition at 1 µM", "setting": "[4]", "value": 0.524, "unit": "%"},
      {"measurement": "inhibition at 1 µM", "setting": "[5]", "value": -6.64, "unit": "%"},
      {"measurement": "inhibition at 1 µM", "setting": "[6]", "value": -0.931, "unit": "%"}
    ]}
  ]
}
